# Reference: paper PMC3458734, “Partial thioamide scan on the lipopeptaibiotic trichogin GA IV. Effects on folding and bioactivity” (Beilstein Journal of Organic Chemistry, 2012)
# Tests used:
# [1] = test system: Staphylococcus aureus ATCC 25923; experiment: Antibacterial activity, disk diffusion Bauer-Kirby method; assay type: cell-based; details: Müller-Hinton medium pH 7.2-7.4
# Protocol: (§1) The antimicrobial activities were assessed on a large set of Gram-positive and Gram-negative bacterial strains. […] Peptide antibacterial activity was tested against Gram-positive and Gram-negative bacteria by the standardized disk diffusion Bauer-Kirby method using the Müller-Hinton culture medium at pH 7.2-7.4 as recommended by the National Committee for Clinical Laboratory Standards. The antibacterial activity assay was performed in a similar way to that described in reference. The activity of peptides was tested against clinical isolates of bacteria and reference bacterial strains: Staphylococcus aureus American Type Culture Collection strains (ATCC) 25923, Streptococcus pyogenes ATCC 19615, Escherichia coli ATCC 25922, Pseudomonas aeruginosa ATCC 27853, Klebsiella pneumoniae ATCC 13883, Salmonella entereditis 13076, and Proteus mirabilis ATCC 10975. The well-known antibiotics bacitracin and tetracyclin (10 μg/disk) were used as controls.
# [2] = test system: Streptococcus pyogenes ATCC 19615; experiment: as above; assay type: cell-based; details: Müller-Hinton medium pH 7.2-7.4
# Protocol: as §1
substance,measurement,setting,value
[Leu^11-OMe] trichogin GA IV,antimicrobial activity on Staphylococcus aureus,[1],active
same,antimicrobial activity on Streptococcus pyrogenes,[2],active
